Measurements reported in paper PMC3138742 (PLoS ONE, 2011).

Tests used:
[1] = tested on: SK-OV-3 cells transfected with ErbB2 siRNA; test: SRB assay after ErbB2 siRNA transfection; assay type: cell-based, human; details: SK-OV-3, ErbB2 siRNA 50 nmol/L, AST1306 6.25 µmol/L (p<0.05) or 12.5 µmol/L (p<0.01)
Description: Small interfering RNA (siRNA) against EGFR or ErbB2, as well as control siRNA, were designed and synthesized by Shanghai GenePharma Co. Ltd. One pair of ErbB2 siRNA (sequence: 5′ […] 3′), and two pairs of EGFR siRNA (#1 sequence: 5′ […] 3′; #2 sequence: 5′ […] 3′) were applied in this study. Different kind of siRNA (final concentration: 50 nmol/L) was transfected to SK-OV-3 cells with oligofectamine reagent (Invitrogen) according to the manufacturer's instruction.

ErbB2 = ErbB2 (Homo sapiens, UniProt P04626); test: Rapid dilution irreversibility experiment; assay type: biochemical; parameters: The kinase domain of EGFR, ErbB-2, IGF1R, VEGFR2, FGFR1, PDGFRα, c-Src, c-Met, RON, c-Kit, EphA2 and EphB2 were expressed; made in house; details: preincubated 30 min at 100-fold IC50, diluted 100-fold, sampled 180 minutes
Chain of ErbB2 (P04626 720-987 limits assumed): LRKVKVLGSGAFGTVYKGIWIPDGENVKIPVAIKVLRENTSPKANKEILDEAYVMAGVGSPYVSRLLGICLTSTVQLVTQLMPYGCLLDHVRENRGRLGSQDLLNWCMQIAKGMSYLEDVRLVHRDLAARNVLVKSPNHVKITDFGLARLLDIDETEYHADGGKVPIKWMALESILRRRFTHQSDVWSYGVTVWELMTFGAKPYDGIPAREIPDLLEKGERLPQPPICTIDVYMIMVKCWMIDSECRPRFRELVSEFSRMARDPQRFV
Experimental: The microplate was placed in the EZ Reader (Caliper Life Sciences, MA) and wells were repeatedly sampled for 180 minutes.
To verify this, we determined the reversibility of EGFR and ErbB2 binding using a dilution method. […] After incubating, the enzyme/inhibitor mixture is diluted 100-fold (i.e., to normal reaction conditions), reaction buffer plus ATP and substrate are added, and receptor kinase activity is measured continuously. In general, a reversible inhibitor dissociates quickly, allowing immediate recovery of enzymatic activity, whereas a slowly reversible inhibitor allows a gradual increase in activity. In contrast, an irreversible inhibitor prevents recovery of enzymatic activity.

NIH3T3 parental cells = test: Cell proliferation SRB assay; assay type: cell-based; details: 72 h, compared with NIH3T3-EGFR T790M/L858R
Description: SK-OV-3, BT474, MDA-MB-468, Calu-3, A-549, NCI-H23, NCI-H1975 and NIH3T3 cells were obtained from the American Type Culture Collection (Rockville, MD). HO-8910 cells were obtained from the cell bank of the Chinese Academy of Sciences. MCF-7 cells were obtained from the Japanese Foundation of Cancer Research. NIH3T3 cells that overexpressed EGFR T790M/L858R mutant (NIH3T3-EGFR T790M/L858R) were constructed and maintained in our laboratory. All cell lines were maintained in strict accordance with the supplier's instructions and established procedures.
(§1) Cell viability was determined using sulforhodamine B assay. IC50 values were determined based on the results of three independent experiments. […] Whole-cell lysates were assayed for total EGFR and phosphorylation of EGFR by immunoblotting. A representative anti-GAPDH immunoblot is shown as a loading control. […] Cell viability was determined using sulforhodamine B assay.
Cell proliferation was evaluated using the SRB (Sulforhodamine B) assay as previously described. Briefly, cells were seeded into 96-well plates and grown for 24 h. […] After cells were air-dried, protein-bound dye was dissolved in 150 μL of 10 mmol/L Tris base for 5 min and measured at 515 nm using a multiwell spectrophotometer (VERSAmax, Molecular Devices). […] The IC50 value was obtained by the Logit method and was determined from the results of at least 3 independent tests.

NCI-H1975 cells = test: Cell proliferation SRB assay; assay type: cell-based, human; details: NCI-H1975 cells (EGFR T790M/L858R)
Experimental: as §1
(§2) Cell proliferation was evaluated using the SRB (Sulforhodamine B) assay as previously described. Briefly, cells were seeded into 96-well plates and grown for 24 h. […] The medium remained unchanged until the completion of the experiment. The cells were then fixed with 10% precooled trichloroacetic acid (TCA) for 1 h at 4°C and stained for 15 min at room temperature with 100 μL of 4 mg/mL SRB solution (Sigma) in 1% acetic acid. The SRB was then removed, and the cells were quickly rinsed five times with 1% acetic acid. After cells were air-dried, protein-bound dye was dissolved in 150 μL of 10 mmol/L Tris base for 5 min and measured at 515 nm using a multiwell spectrophotometer (VERSAmax, Molecular Devices). […] The IC50 value was obtained by the Logit method and was determined from the results of at least 3 independent tests.

[2] = tested on: EGFR phosphorylation in A549 cells; test: Western blot of EGF-induced EGFR phosphorylation; assay type: cell-based, human; details: 0.01 µM, 4 h, EGF 50 ng/ml 15 min
CDK2 = CDK2 (Homo sapiens, UniProt P24941); details: CDK2, cell-free
Experimental: (§3) The tyrosine kinase activities were determined using enzyme-linked immunosorbant assay (ELISA). The serine/threonine kinase activities were detected by Caliper Mobility Shift Assay on EZ Reader (Caliper Life Sciences, MA) according to the instruction.
(§4) The kinase domain of EGFR, ErbB-2, IGF1R, VEGFR2, FGFR1, PDGFRα, c-Src, c-Met, RON, c-Kit, EphA2 and EphB2 were expressed using the Bac-to-Bac^TM baculovirus expression system (Invitrogen, Carlsbad, CA, USA) and purified on Ni-NTA columns (QIAGEN Inc., Valencia, CA, USA). VEGFR1, PDGFRβ and c-Abl were purchased from Upstate Biotechnology Inc. (Charlottesville, Virginia, USA). […] EGF was purchased from R&D, Minneapolis, […]. Poly(Glu-Tyr)(4:1), the substrate of tyrosine kinase, was from Sigma-Aldrich Corp. St. Louis, MO, USA.

PKCb2 = PKCb2 (Homo sapiens, UniProt P05771); details: PKCb2, cell-free
Chain of PKCb2 (P05771 1-673 isoform P05771-2): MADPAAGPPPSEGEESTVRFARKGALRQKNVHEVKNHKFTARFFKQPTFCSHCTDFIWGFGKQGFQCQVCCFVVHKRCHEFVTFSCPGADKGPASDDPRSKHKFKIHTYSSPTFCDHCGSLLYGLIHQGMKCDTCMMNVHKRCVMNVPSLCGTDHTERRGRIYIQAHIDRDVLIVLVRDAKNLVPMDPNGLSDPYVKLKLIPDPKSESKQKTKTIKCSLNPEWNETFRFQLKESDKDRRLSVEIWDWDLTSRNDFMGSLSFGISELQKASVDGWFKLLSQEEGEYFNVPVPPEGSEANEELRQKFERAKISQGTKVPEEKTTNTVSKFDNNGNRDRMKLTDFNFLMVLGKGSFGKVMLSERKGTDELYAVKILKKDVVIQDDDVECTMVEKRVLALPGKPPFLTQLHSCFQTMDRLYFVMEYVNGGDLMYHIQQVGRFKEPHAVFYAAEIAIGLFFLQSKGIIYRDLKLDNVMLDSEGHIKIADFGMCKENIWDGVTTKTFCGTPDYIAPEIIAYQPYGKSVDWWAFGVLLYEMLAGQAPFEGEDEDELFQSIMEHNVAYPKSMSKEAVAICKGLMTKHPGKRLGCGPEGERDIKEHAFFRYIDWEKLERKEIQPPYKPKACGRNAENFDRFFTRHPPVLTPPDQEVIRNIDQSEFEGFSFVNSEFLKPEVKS
Experimental: as §3, §4

MDA-MB-468 cells = test: Cell proliferation SRB assay; assay type: cell-based; details: Homo sapiens, MDA-MB-468, 72 h, range given for four cell lines together, read-out: IC50 (antiproliferative)
Experimental: as §2

NCI-H23 cells = test: Cell proliferation SRB assay; assay type: cell-based; details: Homo sapiens, NCI-H23, 72 h, range given for four cell lines together, read-out: IC50 (antiproliferative)
Experimental: as §2

SK-OV-3 cells [3] = test: Cell proliferation SRB assay; assay type: cell-based; details: Homo sapiens, SK-OV-3, 72 h, range given for four cell lines together, read-out: IC50 (antiproliferative)
Experimental: as §2

SK-OV-3 cells [4] = test: Anchorage-independent growth on soft agar; assay type: cell-based, human; details: two weeks
Experimental: The culture was maintained at 37°C in a 5% CO2 atmosphere for two weeks. The average colony number was calculated and colonies were photographed. Columns, mean of triplicate samples; bars, SE. Significant differences were evaluated using the Student's test (*P<0.05; ** P<0.01). (TIF) Click here for additional data file. Anchorage-independent cell transformation assay. Cell transformation was detected in SK-OV-3 and A549 cells, respectively. […] The culture were maintained in a 37°C, 5% CO2 incubator for 1-2 weeks, and the cell colonies were scored using a microscope and the Image-Pro PLUS computer software program (Media Cybernetics, Silver Spring, MD). Data are shown as means ± SD of values from triplicate experiments and the asterisk (*) indicates a significant (*P<0.05, ** P<0.01) decrease in colony number compared to untreated control.

## C=CC(=O)Nc1ccc2ncnc(Nc3ccc(OCc4cccc(F)c4)c(Cl)c3)c2c1 [AST1306]
[1]
  sensitivity to antiproliferative effect after ErbB2 knockdown: significantly more resistant
ErbB2
  recovery of ErbB2 enzymatic activity after dilution: virtually no EGFR or ErbB2 activity was recovered
NIH3T3 parental cells
  inhibition of cell growth: much less potent
NCI-H1975 cells
  inhibition of cell growth: inhibited the growth
[2]
  EGF-induced EGFR phosphorylation (phospho-EGFR bands): almost disappeared
CDK2
  IC50: > 10 µM
PKCb2
  IC50: > 10 µM
MDA-MB-468 cells
  IC50: 6.2 to 7.5 µM
NCI-H23 cells
  IC50: 6.2 to 7.5 µM
SK-OV-3 cells [3]
  IC50: 6.2 to 7.5 µM
SK-OV-3 cells [4]
  anchorage-independent growth on soft agar: dramatically inhibit the growth
